Test results as given in publication PMC10350917 (Journal of Medicinal Chemistry, 2023).
Where “and” joins values, the source holds several entries; their conditions need not be identical. Equal entries are not always repeated. Where two headings read alike, the source gives them in different places.

Assays:
SHV-1 = details: ref [14],[25]; cited from earlier work
ADC variants = test: Inhibition kinetics, statement for all ADC variants; assay type: biochemical, Acinetobacter baumannii; details: bound stated for all ADC variants of the study
Description: (§1) For inhibition kinetics, utilizing nitrocefin (NCF) as a colorimetric substrate, the inhibition constant (Ki) of MB076 and S02030 BATSI with ADCs was determined using competition kinetics as previously described.[10],[25],[28],[34] The measurements of the initial velocities were performed with the addition of 100 μM NCF after a 3 min pre-incubation of the enzyme (2 nM) with increasing concentration of the inhibitor. […] The Ki value was corrected for the NCF affinity (KM values for each ADC variant listed in Table 1) with the Cheng–Prusoff[35] equation: [drawing 2]

ADC-7 [1] = molecular target: T1, ADC-7 (Acinetobacter baumannii, UniProt Q6DRA1); details: ref [10]; cited from earlier work
KPC-2 = details: ref [14],[25]; cited from earlier work
ADC-33 [2] = molecular target: T2, ADC-33 (Acinetobacter baumannii, UniProt A7Y407); test: Inhibition kinetics (competition with nitrocefin), ADC-33; assay type: biochemical; details: 100 μM nitrocefin, 3 min pre-incubation
Description: as §1

ADC-162 [3] = molecular target: T3, ADC-162 (Acinetobacter baumannii, UniProt A0A2H4PPJ8); test: Inhibition kinetics (competition with nitrocefin), ADC-162; assay type: biochemical
Description: as §1

physchem = details: buffer, pH 7.4
Description: (§2) The in vitro stability of MB076 and S02030 was evaluated by incubating the compounds in both buffer (pH 7.4) and human plasma at 37 °C over 48 h. Half-lives (t1/2) were then calculated for each compound.
(§3) Plasma and buffer stability samples were analyzed by monitoring the disappearance of the compounds using high-performance liquid chromatography-mass spectrometry (LC–MS) techniques.
Standard solutions were prepared by adding the compound in DMSO (2.5 μM) to 0.1 M phosphate buffer pH 7.4 and MeOH. Solutions were vortexed, filtered, and analyzed by LC–MS (At=0). Samples were then prepared by adding a solution of the compound in DMSO (2.5 μM) to phosphate buffer pH 7.4 and incubating at 37 °C. At suitable time intervals, the reaction was stopped by the addition of MeOH. The solutions were vortexed and filtered. Degradation time courses were followed by LC–MS enabling the quantitation of compounds. Half-lives (t1/2) were calculated in Origin using a one-phase decay model with t1/2 = ln(2)/b, where b is the slope of a linear plot of natural logarithm (ln) of the remaining compound concentration (C) versus incubation time. Each condition was tested in triplicate.

ADC-30 [4] = molecular target: T4, ADC-30 (Acinetobacter baumannii, UniProt A7XM81); test: Inhibition kinetics (competition with nitrocefin), ADC-30; assay type: biochemical; details: 100 μM nitrocefin, 3 min pre-incubation
Description: as §1

in vitro = details: human, plasma, pH 7.4
Description: as §2, §3
Half-lives (t1/2) were calculated in Origin using a one-phase decay model with t1/2 = ln(2)/b, where b is the slope of a linear plot of natural logarithm (ln) of the remaining compound concentration (C) versus incubation time. Each condition was tested in triplicate.

[5] = test system: ADC-212 in pBCSK(−) E. coli DH10B; test: Broth microdilution AST, ADC-212; assay type: cell-based; details: Escherichia coli, E. coli DH10B ADC-212, MB076 fixed at 10 mg/L in combinations, FDC in iron-depleted broth
Description: (§4) Susceptibility testing to standard antibiotics was performed by broth microdilution or agar dilution using an Oxoid replicator according to 2021 Clinical and Laboratory Standards Institute (CLSI) guidelines. MICs for CAZ, CTX, FEP, and TOL were determined using cation-adjusted Mueller Hinton MH broth, and MICs for FDC were done in iron-depleted cation-adjusted MH broth according to CLSI methods. MB076, S02030, and VAB were used at a fixed concentration of 10 mg/L. All MICs were interpreted according to the 2021 CLSI guidelines.[43]
(§5) blaADC-7 pBCSK- was cloned and expressed in E. coli DH10B cells as previously described.[44] All other blaADC variants were synthesized by GenScript according to the blaADC-7 pBCSK- strategy, cloning into the XbaI/BamHI sites of the pBCSK- vector.

[6] = test system: ADC-7 in pBCSK(−) E. coli DH10B; test: Broth microdilution AST, ADC-7; assay type: cell-based; details: Escherichia coli, E. coli DH10B ADC-7, MB076 fixed at 10 mg/L in combinations, FDC in iron-depleted broth
Description: as §4, §5

[7] = test system: ADC-219 in pBCSK(−) E. coli DH10B; test: Broth microdilution AST, ADC-219; assay type: cell-based; details: Escherichia coli, E. coli DH10B ADC-219, MB076 fixed at 10 mg/L in combinations, FDC in iron-depleted broth
Description: as §4, §5

[8] = test system: ADC-33 in pBCSK(−) E. coli DH10B; test: Broth microdilution AST, ADC-33; assay type: cell-based; details: Escherichia coli, E. coli DH10B ADC-33, MB076 fixed at 10 mg/L in combinations, FDC in iron-depleted broth
Description: as §4, §5

[9] = test system: ADC-30 in pBCSK(−) E. coli DH10B; test: Broth microdilution AST, ADC-30; assay type: cell-based; details: Escherichia coli, E. coli DH10B ADC-30, MB076 fixed at 10 mg/L in combinations, FDC in iron-depleted broth
Description: as §4, §5

ADC-33 [10] = molecular target: T2, ADC-33
Description: (§6) Steady-state kinetic parameters were determined by combining pure enzyme with antibiotic substrates in 50 mM NaH2PO4, pH 7.4 at room temperature. Changes in absorbance were measured on a Cary 60 UV–Vis spectrophotometer (Agilent Technologies) and converted to velocity using the change in extinction coefficient specific to nitrocefin (ε482 = 17,400 M^–1·cm^–1), cephalothin (ε262 = 7660 M^–1·cm^–1), ceftazidime (ε260 = 8660 M^–1·cm^–1), cefotaxime (ε260 = 7500 M^–1·cm^–1), cefepime (ε260 = 750 M^–1·cm^–1), cefiderocol (ε259 = 9430 M^–1·cm^–1), and ceftolozane (ε254 = 6810 M^–1·cm^–1). Initial velocities were fit to the Michaelis–Menten equation yielding kcat and KM values. For ADC/substrate combinations in which the KM was too large to accurately determine both kcat and KM values, the initial velocities at kcat/KM values were calculated from linear fits of vo in low [S] ranges (<0.08 × KM).

ADC-219 = ADC-219 (Acinetobacter baumannii, UniProt A7Y407, G248D); assay type: biochemical; details: substrate
Description: as §6

ADC-212 = ADC-212 (Acinetobacter baumannii, UniProt A8QIF8, A224D/INS243L/P244A); assay type: biochemical; details: substrate
Description: as §6

ADC-7 [11] = molecular target: T1, ADC-7
Description: as §6

ADC-162 [12] = molecular target: T3, ADC-162; details: substrate
Description: as §6

ADC-30 [13] = molecular target: T4, ADC-30
Description: as §6

O=C(Cc1cccs1)N[C@@H](Cn1cc(C(=O)O)nn1)B(O)O [S02030]
IC50 (SHV-1): 130 nM
Ki (ADC variants): < 1000 nM
Ki (ADC-7 [1]): 44.5 nM and 44 nM and 45 nM
IC50 (KPC-2): 80 nM
Ki (ADC-33 [2]): 110 ± 4 nM
Ki (ADC-162 [3]): 160 ± 10 nM
half-life (physchem): 8 h
Ki (ADC-30 [4]): 28 ± 2 nM
half-life at 2.5 μM (in vitro): 9 h

CO/N=C(\C(=O)N[C@@H]1C(=O)N2C(C(=O)[O-])=C(C[N+]3(C)CCCC3)CS[C@H]12)c1csc(N)n1 [cefepime]
MIC [5]: 0.5 µg/mL
MIC [6]: 0.25 µg/mL
MIC [7]: 0.12 µg/mL
MIC [8]: 0.5 µg/mL
MIC [9]: 0.25 µg/mL

CC(C)(O/N=C(\C(=O)N[C@@H]1C(=O)N2C(C(=O)[O-])=C(C[N+]3(CCNC(=O)c4ccc(O)c(O)c4Cl)CCCC3)CS[C@H]12)c1csc(N)n1)C(=O)O [cefiderocol]
MIC [5]: 1 µg/mL
MIC [6]: 0.5 µg/mL
MIC [7]: 1 µg/mL
kcat (ADC-33 [10]; ADC-33, substrate): 0.60 s^–1
MIC [8]: 2 µg/mL
MIC [9]: 0.5 µg/mL

CO/N=C(\C(=O)N[C@@H]1C(=O)N2C(C(=O)O)=C(COC(C)=O)CS[C@H]12)c1csc(N)n1 [cefotaxime]
MIC [5]: 128 µg/mL
MIC [6]: 64 µg/mL
kcat (ADC-219): 44.2 s^–1
kcat (ADC-212): 12.0 s^–1
MIC [7]: 16 µg/mL
kcat (ADC-7 [11]): 0.048 s^–1
Km (ADC-7 [11]; ADC-7, substrate, 50 mM NaH2PO4 pH 7.4, room temperature): 1.23 ± 0.17 µM
kcat (ADC-162 [12]): 25.4 s^–1
Km (ADC-162 [12]; 50 mM NaH2PO4 pH 7.4, room temperature): 115 µM
kcat (ADC-33 [10]): 0.46 s^–1
Km (ADC-33 [10]; ADC-33, substrate, 50 mM NaH2PO4 pH 7.4, room temperature): 7.11 ± 1.05 µM
kcat (ADC-30 [13]): 0.12 s^–1
Km (ADC-30 [13]; ADC-30, substrate, 50 mM NaH2PO4 pH 7.4, room temperature): 4.35 ± 1.81 µM
MIC [8]: 128 µg/mL
MIC [9]: 64 µg/mL
